# Key:
# CAL PDZ [1] = target: T1, CAL PDZ (Homo sapiens, UniProt Q9HD26); test: CALP fluorescence polarization (FP) competition assay, HTS format with dose-response validation; assay type: binding; parameters: Inhibitory activity CALP at 100 μM: unit not given here
# T1 construct: Recombinant CAL PDZ was expressed and purified in E. coli as previously described; made in house; host or cells: E. coli
# Protocol: (§1) CALP and/or Dab2 inhibition assays were performed in biochemical “mix-and-measure” format in order to evaluate the effects on activation and inhibition of CALP and/or Dab2 by the compounds of the disclosure. Brief assay procedure is provided below. Unless otherwise specified, all of the compounds were obtained from commercial sources.
# CALP inhibitors were identified by fluorescence polarization (FP) competition assays in high-throughput screening (HTS) format. Recombinant CAL PDZ was expressed and purified in E. coli as previously described (Amacher et al., Acta Cyst. (2011) F67, 600-603), and dialyzed into FP storage buffer (25 mM Tris pH 8.5, 150 mM NaCl, 0.1 mM TCEP, and 0.02% sodium azide). A fluorescent reporter peptide, NPG32, was purchased commercially with the following sequence: F*-[…] (F* denotes a N-terminal fluorescein group coupled via an aminohexanoic acid linker). Initial single-dose HTS was performed with libraries comprising ˜52,000 compounds (FAST Lab—Novartis Institutes for BioMedical Research). First, 25 nL of 5 mM small-molecule was transferred to 1536-well Grenier plates. 3 μL of 3.708 μM CALP in FP buffer (FP storage buffer supplemented with […]) was added, and plates were incubated for 10 min. Next, 3 μL of 60 nM NPG32 (in FP buffer) was added. Final reaction volumes were 6 μL and contained 1.854 μM CALP, 30 nM NPG32, and 20.83 μM small-molecule. […] Plates were incubated for 30 minutes at room temperature and anisotropy was measured (480 nm excitation wavelength and 535 nm emission wavelength). […] Compounds were validated in triplicate using 8-point dilution series in half-log increments with two orthogonal assays: FRET and TMR-based FP assay. For the FRET assay, a cerulean-CALP fusion protein (Cer-CALP) was expressed and purified as previously described (Zhao et al., 2018). A fluorescent reporter peptide, PRC34, was purchased commercially with the following sequence: TMR*-[…] (TMR* denotes a N-terminal tetramethylrhodamine group coupled via an aminohexanoic acid linker). First, 40 nL of compound was transferred to the plates. 5 μL of 16.632 μM Cer-CALP was added, and plates were incubated for 30 min. Next, 5 μL of 16.632 μM PRC34 was added, and plates were incubated for 30 min. Final reaction volumes were 10 μL and contained 8.316 μM CALP, 8.316 μM […], and variable concentrations of small-molecule. Negative controls contained equivalent amounts of DMSO (0.4%), while positive controls contained 100 μM NPG30 (sequence: […]). Plates were incubated for 30 min, and emission at 475 nm and 575 nm was measured following excitation at 430 nm. TMR FP assays were conducted as described for the FITC-based assay with the following exceptions: TMR was used as the reporter peptide, the final CALP concentration was 11.952 μM, and the positive control used was 100 μM NPG30.
# CAL PDZ [2] = target: T1, CAL PDZ; test: MALDI-TOF detection of covalent modification of CAL PDZ; assay type: binding
# Protocol: (§2) Following incubation of 50 μM protein with 75 μM of example 8, the molecular weight of the samples was determined by MALDI (unlabeled CALP molecular weight: 9464±15 Da; labeled CALP molecular weight: 9623±9 Da).
# CAL PDZC319A = target: T2, CAL PDZC319A (Homo sapiens, UniProt Q9HD26, C327A); test: MALDI-TOF detection of adduct on point mutant CAL PDZ C319A; assay type: binding; details: only cysteine mutated to alanine
# T2 construct: point mutant CAL PDZC319A (where the only cysteine residue is mutated to alanine)
# Protocol: as §2
# CAL PDZ [3] = target: T1, CAL PDZ; test: FP assay of peptide binding by CAL PDZ pre-labeled with compound (apparent KD)
# From the text: Next, to probe the biochemical effect example 8 exerts on CAL PDZ-peptide binding, CAL PDZ was pre-labeled with example 8 and performed fluorescence polarization (FP) assays to determine apparent KD values for both unlabeled and labeled CAL PDZ.
# wild-type CFTR = test: Cell-surface expression of wild-type CFTR in WT-CFBE cells; assay type: cell-based; details: 1 μM and 5 μM, no correctors or potentiators
# Protocol: The effect of example 8 on cell-surface expression of wild-type CFTR was also tested in the absence of correctors or potentiators. Two doses (1 μM and 5 μM) of example 8 were applied to wild-type cystic fibrosis bronchial epithelial (WT-CFBE) cells and the abundance of WT-CFTR cells in the plasma membrane was quantified.
# CFTR [4] = test: Apical membrane abundance of CFTR in WT-CFBE cells (biotinylation, immunoblot); assay type: cell-based; details: 1 μM
# Protocol: Apical membrane CFTR was normalized for CFTR abundance in cell lysate. N=2 (1h and 2 h) and n=3 (4h). Error bar S.E.M. *p<0.05 versus vehicle control (CTRL; 0.03% water).
# CFTR [5] = test: CFTR activity in F508del HBE primary cells; assay type: cell-based; details: 1 μM, 4 hours
# Human-Dab2-DH = target: T3, Human-Dab2-DH (Homo sapiens, UniProt P98082); test: Dab2 FP competition assay via HTS; assay type: binding
# T3 construct: fused on or other part: N-terminal 10xHis tag with a 3C protease site, cleaved off unless otherwise indicated
# T3 sequence (P98082 33-178 limits assumed): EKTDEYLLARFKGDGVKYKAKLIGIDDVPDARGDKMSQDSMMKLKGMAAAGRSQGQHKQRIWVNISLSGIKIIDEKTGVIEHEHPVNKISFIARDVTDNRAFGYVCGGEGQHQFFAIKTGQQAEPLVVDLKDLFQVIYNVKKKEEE
# Protocol: as §1
# Dab-2 inhibitors were also identified by FP competition assays via HTS. Human-Dab2-DH, residues 31-191 (Uniprot: P98082), and trDab2-DH (residues 33-178) was subcloned into the pET16b vector via PCR utilizing the restriction enzyme sites of Xhol and BamHI. The construct was designed with a 3C protease cleavage site directly upstream and in-frame with the protein coding sequence. DNA was sequence verified. (0.1 mM) IPTG was used to induce protein expression in E. coli BL21(DE3)RIL cells, after reaching an O.D. of […]. […] Followed by 3C cleavage of the 10×His tag (unless otherwise indicated), and a second nickel affinity column to remove the 3C protease and excess tag. Dab2-DH was dialyzed into FP storage buffer (25 mM Tris pH 8.0, 150 mM NaCl, 0.1 mM TCEP, and 0.02% sodium azide). Fluorescent reporter peptides, TIVR*STA02 (TMR*-[…]) and TMR*STA03 (TMR*-[…]), were purchased commercially with the following sequence where TMR* denotes a N-terminal tetramethylrhodamine group coupled via an aminohexanoic acid linker. An unlabled positive control peptide STA02 ([…]) was also purchased commercially. Inhibitors of Dab2-DH were identified from a variety of sources with various protocols outlined below.
# For screens conducted at the Novartis Institutes for BioMedical Research FAST Lab, single-dose HTS assays were performed with libraries comprising ˜52,000 compounds at 20 μM doses. Experiments were conducted as described for screens at the University of Pittsburgh Lab and Drug Discovery Institute, except that Dab2-DH, not trDab2-DH, was used as the protein source.
# For screens conducted at the Broad Institute, compound transfers were done using a 384-well pin tool equipped with 100 nL hydrophobic surface coated pins. 100 nL of DMSO (negative control), STA02 (positive control), or library compounds were dispensed into 20 μL of protein (200 nM) and reporter (F*-STA02, 30 nM) mixture with 0.1 mg/ml mouse IgG and 0.5 mM Thesit. Final concentrations in the mixture were DMSO ([…]), STA02 (20 μM), and compounds (18 μM). Plates were incubated for 35-45 minutes before measuring polarization. Compounds were tested in duplicates on two separate plates. Positive and negative controls were included in each individual plate.
# For experiments conducted at the University of Pittsburgh Lab and Drug Discovery Institute, single-dose HTS assays were performed with a library containing ˜220,000 compounds. On the day of screening, a master mix of equal parts trDab2-DH (900 nM) and TMP-STA03 (90 nM) was prepared. Compound plates containing assay ready 2 μL aliquots of a 1 mM stock solution in DMSO were thawed, reconstituted in FP buffer to a concentration of 30 μM in 3% DMSO, and five μL transferred to low volume assay plates using a Perkin Elmer MDT. Ten μL of master mix were added by a Microflo bulk liquid dispenser (Biotek, Winooski, VT) and processed as described in the general protocol above. Each plate contained 32 wells of positive (Dab2-DH+probe+DMSO) and negative (Dab2-DH+probe +10 μM STA03) controls. Plates were read at 1.5-h and 4-h on the Envision multilabel reader.
# HBE primary cells = test: Airway surface liquid (ASL) volume after forskolin stimulus in HBE primary cells; assay type: cell-based; details: 20 μM, basolateral, 4 hr
# Protocol: A functional test for CFTR activity is the determination of airway surface liquid (ASL) height, reflecting ion transport and associated osmotic recruitment of water, following activation of CFTR ion transport via forskolin stimulation. This functional test is directly related to one of the hallmarks of CF: the viscosity of airway mucus due to lack of anion transport.
# Example 6 or Example 9 (20 μM each) or DMSO (CTR; 0.02%; […]) was added to the basolateral medium for 4 hr. Subsequently, forskolin (20 μM) and IBMX (1 mM) was added to the apical and basolateral medium. The test compounds were added for 30 min directly to the basolateral medium, and they were added in 10 μL medium to the apical side. The 10 μL volume was subtracted from the ASL volume (N=2-4/group).
# Dab2-DH = target: T4, Dab2-DH (Homo sapiens, UniProt P98082); test: Dab2-DH FP competitive displacement experiments (F*-STA02 reporter); assay type: binding; details: text b140
# T4 construct: Human-Dab2-DH, residues 31-191 (Uniprot: P98082); 10xHis (3C protease site) (N, cleaved yes); made in house; host or cells: E. coli BL21(DE3)RIL
# T4 sequence (P98082 31-191): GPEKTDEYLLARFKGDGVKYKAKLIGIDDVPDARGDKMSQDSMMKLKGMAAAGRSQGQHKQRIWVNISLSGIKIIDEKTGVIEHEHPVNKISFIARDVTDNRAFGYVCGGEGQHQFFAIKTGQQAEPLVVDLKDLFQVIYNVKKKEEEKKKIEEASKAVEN
# [6] = with VX-770, C-18, CFFT-002, Fsk and IBMX
structure (smiles),measurement,setting,value
"O=c1[nH]c2ccc(S(=O)(=O)Nc3ccc(O)c4ccccc34)cc2[nH]1 [Example 8, N-(4-hydroxynaphthalen-1-yl)-2-oxo-2,3-dihydro-1H-benzo[d]imidazole-5-sulfonamide]",Inhibitory activity CALP at 100 μM,CAL PDZ [1]; at 100 μM,−72.16
same,IC50,CAL PDZ [1]; read-out: Inhibitory activity CALP IC50,4570 nM
same,Adduct size / mass shift observed on CAL PDZ,CAL PDZ [2],~160 Da
same,Covalent modification of CAL PDZ,CAL PDZ [2],covalently modify CAL PDZ
same,Adduct on CAL PDZ C319A,CAL PDZC319A,no adduct is detected
same,Attenuation in peptide binding vs unlabeled CAL PDZ,CAL PDZ [3],~4 fold
same,Surface levels of WT-CFTR,wild-type CFTR,reduce surface levels of WT-CFTR
"C=C1c2cccc(O)c2C(O)=C2C(=O)[C@]3(O)C(O)=C(C(N)=O)C(=O)[C@@H](N(C)C)[C@@H]3[C@@H](O)[C@H]12 [Example 10, (4S,4aR,5S,5aR,12aR)-4-(dimethylamino)-1,5,10,11,12a-pentahydroxy-6-methylene-3,12-dioxo-3,4,4a,5,5a,6,12,12a-octahydrotetracene-2-carboxamide]",Abundance of CFTR (apical membrane),CFTR [4],increase in the abundance of CFTR
same,CFTR activity,CFTR [5]; [6],significant enhancement of CFTR activity
same,Channel activity relative to absence of C-18 and CFFT-002,CFTR [5]; [6],approximately 2 fold
same,CFTR activity,"CFTR [5]; with VX-770, Fsk and IBMX",significant enhancement of CFTR activity
"COc1cc(O)c(C(=O)O)c(-c2cc(O)c(O)cc2C)c1 [Example 9, 3,4′,5′-trihydroxy-5-methoxy-2′-methyl-[1,1′-biphenyl]-2-carboxylic acid]",IC50,Human-Dab2-DH,37 nM
same,ASL volume generated in response to forskolin stimulus,HBE primary cells,increased the ASL volume
"CN1CCc2cccc3c2[C@@H]1Cc1ccc(O)c(O)c1-3.Cl [Example 12, (S)-6-methyl-5,6,6a,7-tetrahydro-4H-dibenzo[de,g]quinoline-10,11-diol hydrochloride]",Inhibitory activity Dab2 at Cmax,"Human-Dab2-DH; at Cmax, cells printed with %",~−95%
same,Ki,Dab2-DH,1610 ± 740 nM

# — patent US20230338340A1, “Methods of Treating Cystic Fibrosis” (The Trustees of Dartmouth College, priority 2020, published 2023)
